Assay results as given in patent US4208409A, “N-[(phosphinyl or phosphinothioyl)amino]thio-methylcarbamates and pesticidal methods” (priority 1978, dated 1980).
Like-named read-outs stand apart in the source and are kept apart here.

Key:
cabbage looper (CL) = assay: cabbage looper mortality test (bush lima bean leaf dip); assay type: in vivo; details: Trichoplusia ni, foliar; for mortality at 11 ppm: rate 11 ppm
From the text: (§1) Representative pest species have been used, illustratively, order Lepidoptera, more specifically, the southern armyworm (SAW), (Prodenia eridania Cramer), the tobacco budworm (TBW), (Heliothis virescens), and the cabbage looper (CL) (Trichoplusia ni); order Acarina, more specifically, the two-spotted spider mite (TSSM) (Tetranychus urticae Koch); order Diptera, more specifically, the housefly (HF) (Musca domestica Linnaeus) or the yellow-fever mosquito (YFM) (Aedes aegypti); order Orthoptera, more specifically, the house cricket (HC) (Acheta domesticus Linnaeus) or the German cockroach (GC) (Blatella germanica Linnaeus); order Coleoptera, more specifically, the cotton boll weevil (BW) (Anthonomus grandis Boheman).
(§2) Preparation of tested chemicals--Analytical samples of each were dissolved in acetone. These acetone solutions were applied as such or portions of them were diluted with a Tween 20 "wet water" or a 10% sucrose "wet water". The "wet water" itself contained 0.132% v/v of Tween 20 (polyoxyethylene sorbitan monolaurate).
(§3) The southern armyworm and cabbage looper tests were effected with Henderson bush lima bean foliage characterized by two primary leaves per replicate. The leaves were dipped into a "wet water" emulsion of a test chemical, allowed to dry, and then placed on a moistened filter disk in a 9 cm plastic petri dish. Five larva of the respective test insects were put on the leaves, the cover of the petri dish was replaced, and it was set aside for future evaluation. Three replications for each treatment rate were prepared.
(§4) The southern armyworm, house cricket, boll weevil, house fly, and cabbage looper tests were held at 22° C., while the yellow fever mosquito larvae tests were held at 27° C.
(§5) The tests were evaluated for insect kill (including moribund and knocked down) after 24, 48, and sometimes 72 hours.

[1] = Mammalian Toxicity, oral LD50, rat; details: in vivo
southern armyworm (SAW) = assay: southern armyworm mortality test (bush lima bean leaf dip); assay type: in vivo, Prodenia eridania Cramer; details: Spodoptera eridania, foliar
From the text: as §1, §2, §3, §4, §5

tobacco budworm (TBW) = assay: tobacco budworm mortality test; assay type: in vivo; details: Heliothis virescens
From the text: as §1, §2, §5

[2] = tested on: yellow-fever mosquito (YFM); assay: whole plant or invertebrate; assay type: in vivo; details: Aedes aegypti
From the text: as §1, §2
The yellow fever mosquito larvae test was effected by adding the appropriate amount of a wet water and acetone solution of the test chemical to 100 ml distilled water in a 5-ounce waxed paper cup. Ten mosquito larvae were added. […]
as §5

plant = assay: phytotoxicity compared with the parent compound; assay type: in vivo; details: for average phytotoxicity index: after eight days, scale 0 = no damage, 10 = complete kill of plant
From the text: (§6) In other tests, the phytotoxicity, residual effectiveness, and animal toxicity of e.g. Methyl N-[[[[[(diethoxyphosphinothioyl)isopropylamino]thio]methylamino]carbonyl]oxy]ethanimidothioate were compared with the parent compound, methyl N-[[(methylamino)carbonyl]oxy]ethanimidothioate. […] The parent compound had corresponding index values of 4.25 and 5.0.

southern armyworm larvae = assay: foliar residual effectiveness against southern armyworm larvae on lima bean seedlings; assay type: in vivo, Prodenia eridania Cramer
From the text: These compounds were also compared for their foliar residual effectiveness against southern armyworm larvae on lima bean seedlings. The compound Methyl N-[[[[[(diethoxyphosphinothioyl)isopropylamino]thio]methylamino]carbonyl]oxy]ethanimidothioate of this invention was producing 100 percent mortality seven weeks after the treatment was applied, whereas the activity of the parent compound at an equivalent rate had dissipated to 20% by the 14th day.

[3] = acute oral toxicity to male rats; assay type: in vivo, rat; details: rat, in vivo
crystallinity = assay type: physicochemical
cotton boll weevil (BW) = assay: boll weevil mortality test (saturated cotton wad); assay type: in vivo, Anthonomus grandis Boheman
From the text: as §1, §2
(§7) The house fly and boll weevil tests were effected by saturating a golf-ball size wad of cotton with 10 ml of a "10% wet sugar water" preparation of the test chemical. […]
as §5

housefly (HF) = assay: house fly mortality test (saturated cotton wad); assay type: in vivo, Musca domestica Linnaeus; details: Musca domestica
From the text: as §1, §2, §7, §5

male rats = assay: acute oral toxicity to male rats; assay type: in vivo, rat
eggplant = assay: phytotoxicity on the sensitive crop, eggplant, compared with the parent compound; assay type: in vivo
From the text: as §6

Q: Which mortality at 11 ppm (cabbage looper (CL); CL) does the source give for `CCC1(CC)COP(=S)(N(SN(C)C(=O)ON=C(C)SC)C(C)C)OC1` [Methyl N-[[[[[isopropyl(5,5-diethyl-2-thioxo-1,3,2-dioxaphosphorinan-2-yl)amino]thio]methylamino]carbonyl]oxy]ethanimidothioate] here?
A: Its mortality at 11 ppm is 95%.

Q: What about the LD50 [1] of the same molecule?
A: Its LD50 is greater than 2000 mg/kg.

Q: What about the mortality at 11 ppm (southern armyworm (SAW)) of the same molecule?
A: The mortality at 11 ppm was 60%.

Q: What about the mortality at 11 ppm (tobacco budworm (TBW)) of the same molecule?
A: Its mortality at 11 ppm is 100%.

Q: For `CSC(C)=NOC(=O)N(C)SN(C1CCCCC1)P1(=S)OCC(C)(C)CO1` [Methyl N-[[[[[cyclohexyl(5,5-dimethyl-2-thioxo-1,3,2-dioxaphosphorinan-2-yl)amino]thio]methylamino]carbonyl]oxy]ethanimidothioate], which mortality at 11 ppm (cabbage looper (CL); CL) is on record?
A: The mortality at 11 ppm was 87.5%.

Q: What about the LD50 [1] of the same molecule?
A: The LD50 was greater than 8000 mg/kg.

Q: What about the mortality at 11 ppm (southern armyworm (SAW)) of the same molecule?
A: Its mortality at 11 ppm is 70%.

Q: What about the mortality at 11 ppm (tobacco budworm (TBW)) of the same molecule?
A: The mortality at 11 ppm was 95%.

Q: Which results are given for `CCCN(SN(C)C(=O)Oc1cc(C)c(N(C)C)c(C)c1)P(=S)(OCC)OCC` [4-(dimethylamino)-3,5-xylyl [[(diethoxyphosphinothioyl)-n-propylamino]thio]methylcarbamate]?
A: mortality at 0.6 ppm ([2]; rate 0.6 ppm): 100%; mortality at 100 ppm (southern armyworm (SAW)): 100%

Q: With `CNC(=O)ON=C(C)SC` [methyl N-[[(methylamino)carbonyl]oxy]ethanimidothioate, reference compound] as the molecule, how does the average phytotoxicity index (plant; 300 ppm) read?
A: Its average phytotoxicity index is 4.25.

Q: What about the average phytotoxicity index (plant; 600 ppm) of the same molecule?
A: The average phytotoxicity index was 5.0.

Q: What about the foliar residual activity (southern armyworm larvae; by the 14th day, at an equivalent rate) of the same molecule?
A: Its foliar residual activity is 20%.

Q: What about the LD50 [3] of the same molecule?
A: The LD50 was 17 to 24 mg/kg.

Q: Which mortality at 11 ppm (cabbage looper (CL); CL) does the source give for `CSC(C)=NOC(=O)N(C)SN(C(C)C)P1(=S)OC(C)CC(C)(C)O1` (centres unmarked) [Methyl N-[[[[[isopropyl(4,4,6-trimethyl-2-thioxo-1,3,2-dioxaphosphorinan-2-yl)amino]thio]methylamino]carbonyl]oxy]ethanimidothioate] here?
A: The mortality at 11 ppm was 92.5%.

Q: For `CSC(C)=NOC(=O)N(C)SN(C(C)(C)C)P1(=S)OCC(C)(C)CO1` [Methyl N-[[[[[(5,5-dimethyl-2-thioxo-1,3,2-dioxaphosphorinano-2-yl)tert-butylamino]thio]methylamino]carbonyl]oxy]ethanimidothioate], which crystallinity (crystallinity) is on record?
A: The crystallinity was “extremely crystalline”.

Q: What does the source list for `CCC1(CC)COP(=S)(N(SN(C)C(=O)ON=C(C)SC)C2CCCCC2)OC1` [Methyl-[[[[[cyclohexyl(5,5-diethyl-2-thioxo-1,3,2-dioxaphosphorinan-2-yl)amino]thio]methylamino]carbonyl]oxy]ethanimidothioate]?
A: mortality at 11 ppm (cabbage looper (CL); CL): 77.5%; LD50 [1]: > 8000 mg/kg; mortality at 11 ppm (southern armyworm (SAW)): 70%; mortality at 11 ppm (tobacco budworm (TBW)): 95%

Q: Which mortality at 11 ppm (cabbage looper (CL); CL) does the source give for `CSC(C)=NOC(=O)N(C)SN(C(C)C)P1(=S)OCCO1` [Methyl N-[[[[[isopropyl(2-thioxo-1,3,2-phospholan-2-yl)amino]thio]methylamino]carbonyl]oxy]ethanimidothioate] here?
A: The mortality at 11 ppm was 48%.

Q: And the mortality at 11 ppm (southern armyworm (SAW))?
A: The mortality at 11 ppm was 40%.

Q: What about the mortality at 11 ppm (tobacco budworm (TBW)) of the same molecule?
A: The mortality at 11 ppm was 45%.

Q: For `CSC(C)=NOC(=O)N(C)SN(C(C)C)P1(=S)OCCCO1` [Methyl-[[[[[isopropyl(2-thioxo-1,3,2-dioxaphosphorinan-2-yl)amino]thio]methylamino]carbonyl]oxy]ethanimidothioate], which mortality at 11 ppm (southern armyworm (SAW)) is on record?
A: Its mortality at 11 ppm is 56%.

Q: Which results are given for `COP(=S)(c1ccccc1)N(SN(C)C(=O)ON=C(C)SC)C(C)C` (centres unmarked) [Methyl N-[[[[[[methoxy(phenyl)phosphinothioyl]isopropylamino]thio]methylamino]carbonyl]oxy]ethanimidothioate]?
A: mortality at 3.3 ppm (cabbage looper (CL)): 50%; mortality at 25 ppm (cotton boll weevil (BW)): 80%; mortality at 3.3 ppm (southern armyworm (SAW)): 90%; mortality at 25 ppm (housefly (HF)): 50%

Q: With `CCOP(=S)(OCC)N(SN(C)C(=O)ON=C(C)SC)C(C)C` [Methyl N-[[[[[(diethoxyphosphinothioyl)isopropylamino]thio]methylamino]carbonyl]oxy]ethanimidothioate] as the molecule, how does the average phytotoxicity index (plant; 300 ppm) read?
A: The average phytotoxicity index was “about 1.0”.

Q: And the average phytotoxicity index (plant; 600 ppm)?
A: Its average phytotoxicity index is roughly 1.5.

Q: What about the “phytotoxicity compared with parent compound” value (plant; in general) of the same molecule?
A: Its value is “in general less phytotoxic than the parent”.

Q: And the mortality at 3.3 ppm (cabbage looper (CL); CL, rate 3.3 ppm, read-out: Mortality)?
A: Its mortality at 3.3 ppm is 100%.

Q: What about the “mortality, foliar residual effectiveness” value (southern armyworm larvae; seven weeks after the treatment was applied, 70560 min) of the same molecule?
A: Its value is 100%.

Q: And the mortality at 1 ppm ([2]; rate 1.0 ppm)?
A: The mortality at 1 ppm was 100%.

Q: What about the mortality at 50 ppm (cotton boll weevil (BW); BW, rate 50 ppm) of the same molecule?
A: Its mortality at 50 ppm is 60%.

Q: What about the mortality at 3.3 ppm (southern armyworm (SAW)) of the same molecule?
A: Its mortality at 3.3 ppm is 100%.

Q: What about the LD50 [3] of the same molecule?
A: The LD50 was 105 mg/kg.

Q: What about the “oral toxicity relative to the parent methylcarbamate” value (male rats) of the same molecule?
A: The value was “less than one fourth as toxic as the parent methylcarbamate”.

Q: And the “phytotoxicity compared with parent compound” value (eggplant)?
A: The value was “markedly less phytotoxic”.

Q: What about the mortality at 25 ppm (housefly (HF); HF, rate 25 ppm, read-out: Mortality) of the same molecule?
A: Its mortality at 25 ppm is 80%.

Q: With `CCN(SN(C)C(=O)ON=C(C)SC)P1(=S)OCC(C)(C)CO1` [Methyl-[[[[[ethyl(5,5-dimethyl-2-thioxo-1,3,2-dioxaphosphorinan-2-yl)amino]thio]methylamino]carbonyl]oxy]ethanimidothioate] as the molecule, how does the mortality at 11 ppm (cabbage looper (CL); CL) read?
A: The mortality at 11 ppm was 56%.
